Results from patent publication US12486240B2, “Oxadiazole compounds for controlling or preventing phytopathogenic fungi” (PI INDUSTRIES LTD., priority 2019, dated 2025).

tested on: Rhizoctonia solani; experiment: Rhizoctonia solani mycelial radial growth test on potato dextrose agar; format: cell-based; conditions: 300 ppm, 25° C., 60% relative humidity, seven days

Row | SMILES | control (radial growth compared to untreated control)
1 | CCN(C)c1c(Nc2ccc(-c3noc(C(F)(F)F)n3)cc2)c(=O)c1=O [Compound 3, 3-(ethyl(methyl)amino)-4-((4-(5-(trifluoromethyl)-1,2,4-oxadiazol-3-yl)phenyl)amino)cyclobut-3-ene-1,2-dione] | ≥ 70%

tested on: Botrytis cinerea; experiment: Botrytis cinerea mycelial radial growth test on potato dextrose agar; format: cell-based; conditions: 300 ppm, 22° C., 90% relative humidity, seven days

Row | SMILES | control (radial growth compared to untreated control)
2 | COCCN(C)c1c(Nc2ccc(-c3noc(C(F)(F)F)n3)cc2)c(=O)c1=O [Compound 7, 3-((2-methoxyethyl)(methyl)amino)-4-((4-(5-(trifluoromethyl)-1,2,4-oxadiazol-3-yl)phenyl)amino)cyclobut-3-ene-1,2-dione] | ≥ 70%

tested on: Phakopsora pachyrhizi; experiment: Phakopsora pachyrhizi test on soybean (preventive spray); format: in vivo; conditions: preventive spray on soybean plants, inoculated one day after treatment, rated 3, 7, 10 and 15 days after application, read-out: Efficacy (% control) from disease severity rating versus untreated control
Protocol: Example 5: Phakopsora pachyrhizi Test on Soybean Compounds were dissolved in 2% dimethyl sulfoxide/acetone and then mixed with water containing an emulsifier to a calibrated spray volume of 50 mL. This 50 mL spray solution was poured into spray bottles for further applications. To test the preventive activity of compounds, healthy young Soybean plants raised in the greenhouse were sprayed with the active compound preparation at the stated application rates inside the spray cabinets using hollow cone nozzles. One day after treatment, the plants were inoculated with a spore suspension containing 2×10^5 Phakopsora pachyrhizi conidia. The inoculated plants were then kept in a greenhouse chamber at 22-24° C. temperature and 80-90% relative humidity for disease expression. A visual assessment of the compound's performance was carried out by rating the disease severity (0-100% scale) on treated plants 3, 7, 10 and 15 days after application. Efficacy (% control) of the compounds was calculated by comparing the disease rating in the treatment with the one of the untreated control. The sprayed plants were also assessed for plant compatibility by recording symptoms like necrosis, chlorosis and stunting.

Row | SMILES | pest or weed control at 500 ppm
3 | COCCN(C)c1c(Nc2ccc(-c3noc(C(F)(F)F)n3)cc2)c(=O)c1=O [Compound 7, 3-((2-methoxyethyl)(methyl)amino)-4-((4-(5-(trifluoromethyl)-1,2,4-oxadiazol-3-yl)phenyl)amino)cyclobut-3-ene-1,2-dione] | ≥ 70%
4 | CCN(C)c1c(Nc2ccc(-c3noc(C(F)(F)F)n3)cc2)c(=O)c1=O [Compound 3, 3-(ethyl(methyl)amino)-4-((4-(5-(trifluoromethyl)-1,2,4-oxadiazol-3-yl)phenyl)amino)cyclobut-3-ene-1,2-dione] | ≥ 70%
5 | C=CCNc1c(N(C)Cc2ccc(-c3noc(C(F)(F)F)n3)cc2)c(=O)c1=O [Compound 56, 3-(allylamino)-4-(methyl(4-(5-(trifluoromethyl)-1,2,4-oxadiazol-3-yl)benzyl)amino)cyclobut-3-ene-1,2-dione] | ≥ 70%
6 | CN(C)c1c(Nc2ccc(-c3noc(C(F)(F)F)n3)cc2)c(=O)c1=O [Compound 12, 3-(dimethylamino)-4-((4-(5-(trifluoromethyl)-1,2,4-oxadiazol-3-yl)phenyl)amino)cyclobut-3-ene-1,2-dione] | ≥ 70%
7 | CN(Cc1ccc(-c2noc(C(F)(F)F)n2)cc1)c1c(N2CCOCC2)c(=O)c1=O [Compound 42, 3-(methyl(4-(5-(trifluoromethyl)-1,2,4-oxadiazol-3-yl)benzyl)amino)-4-morpholinocyclobut-3-ene-1,2-dione] | ≥ 70%
8 | COC1CCN(c2c(N(C)Cc3ccc(-c4noc(C(F)(F)F)n4)cc3)c(=O)c2=O)C1 (stereo not drawn) [Compound 54, 3-(3-methoxypyrrolidin-1-yl)-4-(methyl(4-(5-(trifluoromethyl)-1,2,4-oxadiazol-3-yl)benzyl)amino)cyclobut-3-ene-1,2-dione] | ≥ 70%
9 | CN(Cc1ccc(-c2noc(C(F)(F)F)n2)cc1)c1c(N2CCCC2)c(=O)c1=O [Compound 44, 3-(methyl(4-(5-(trifluoromethyl)-1,2,4-oxadiazol-3-yl)benzyl)amino)-4-(pyrrolidin-1-yl)cyclobut-3-ene-1,2-dione] | ≥ 70%
10 | COc1c(Nc2ccc(-c3noc(C(F)(F)F)n3)cc2)c(=O)c1=O [Compound 2, 3-methoxy-4((4-(5-(trifluoromethyl)-1,2,4-oxadiazol-3-yl)phenyl)amino)cyclobut-3-ene-1,2-dione] | ≥ 70%
11 | O=c1c(Nc2ccc(-c3noc(C(F)(F)F)n3)cc2)c(N2CCOCC2)c1=O [Compound 4, 3-morpholino-4((4-(5-(trifluoromethyl)-1,2,4-oxadiazol-3-yl)phenyl)amino)cyclobut-3-ene-1,2-dione] | ≥ 70%
12 | CC(C)OC1CN(c2c(N(C)Cc3ccc(-c4noc(C(F)(F)F)n4)cc3)c(=O)c2=O)C1 [Compound 48, 3-(3-isopropoxyazetidin-1-yl)-4-(methyl(4-(5-(trifluoromethyl)-1,2,4-oxadiazol-3-yl)benzyl)amino)cyclobut-3-ene-1,2-dione] | ≥ 70%
13 | C=CCN(C)c1c(Nc2ccc(-c3noc(C(F)(F)F)n3)cc2)c(=O)c1=O [Compound 14, 3-(allyl(methyl)amino)-4-((4-(5-(trifluoromethyl)-1,2,4-oxadiazol-3-yl)phenyl)amino)cyclobut-3-ene-1,2-dione] | ≥ 70%
14 | CN1CCN(c2c(N(C)Cc3ccc(-c4noc(C(F)(F)F)n4)cc3)c(=O)c2=O)CC1 [Compound 52, 3-(methyl(4-(5-(trifluoromethyl)-1,2,4-oxadiazol-3-yl)benzyl)amino)-4-(4-methylpiperazin-1-yl)cyclobut-3-ene-1,2-dione] | ≥ 70%
15 | CN(Cc1ccc(-c2noc(C(F)(F)F)n2)cc1)c1c(N2CC3(COC3)C2)c(=O)c1=O [Compound 49, 3-(methyl(4-(5-(trifluoromethyl)-1,2,4-oxadiazol-3-yl)benzyl)amino)-4-(2-oxa-6-azaspiro[3.3]heptan-6-yl)cyclobut-3-ene-1,2-dione] | ≥ 70%
